Reference: patent US9309242B2, “Substituted pyrido[2,3-b]pyrazines as FGFR kinase inhibitors” (priority 2011, dated 2016)
Counter-ions that a name gives are not always drawn.

What was measured:
[1] = target: T1, Ba/F3-KDR-transfected cells (Homo sapiens, UniProt P35968); test: Ba/F3-KDR (minus IL3) cellular proliferation assay, Alamar Blue; assay type: cell-based
T1 construct: BAF3-KDR (MIN IL3) pIC50; other: minus IL3
How it was run: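 Proliferation is measured as Alamar Blue relative fluorescence units following 24 h compound treatment of 20000 cells per well in 10% FBS medium. The IL3-supplemented run serves as a counterscreen under the same conditions.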

[2] = system: Ba/F3-FGFR3-transfected cells; test: Ba/F3-FGFR3 (plus IL3) cellular proliferation assay, counterscreen with 10 ng/ml murine IL3; assay type: cell-based; settings: plus IL3 (10 ng/ml murine IL3, counterscreen); read-out: BAF3-FGFR3 (PLUS IL3) pIC50 (converted)
How it was run: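 Ba/F3 cells transfected with FGFR3, 20000/well in phenol red-free RPMI-1640 with 10% FBS, exposed to compound for 24 h at 37 °C, 5% CO2. Alamar Blue (resazurin) added for 4 h more; fluorescence read at ex 540/em 590 nm. Counterscreen run the same way with 10 ng/ml murine IL3.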

T1 sequence (P35968 whole entry, change not shown): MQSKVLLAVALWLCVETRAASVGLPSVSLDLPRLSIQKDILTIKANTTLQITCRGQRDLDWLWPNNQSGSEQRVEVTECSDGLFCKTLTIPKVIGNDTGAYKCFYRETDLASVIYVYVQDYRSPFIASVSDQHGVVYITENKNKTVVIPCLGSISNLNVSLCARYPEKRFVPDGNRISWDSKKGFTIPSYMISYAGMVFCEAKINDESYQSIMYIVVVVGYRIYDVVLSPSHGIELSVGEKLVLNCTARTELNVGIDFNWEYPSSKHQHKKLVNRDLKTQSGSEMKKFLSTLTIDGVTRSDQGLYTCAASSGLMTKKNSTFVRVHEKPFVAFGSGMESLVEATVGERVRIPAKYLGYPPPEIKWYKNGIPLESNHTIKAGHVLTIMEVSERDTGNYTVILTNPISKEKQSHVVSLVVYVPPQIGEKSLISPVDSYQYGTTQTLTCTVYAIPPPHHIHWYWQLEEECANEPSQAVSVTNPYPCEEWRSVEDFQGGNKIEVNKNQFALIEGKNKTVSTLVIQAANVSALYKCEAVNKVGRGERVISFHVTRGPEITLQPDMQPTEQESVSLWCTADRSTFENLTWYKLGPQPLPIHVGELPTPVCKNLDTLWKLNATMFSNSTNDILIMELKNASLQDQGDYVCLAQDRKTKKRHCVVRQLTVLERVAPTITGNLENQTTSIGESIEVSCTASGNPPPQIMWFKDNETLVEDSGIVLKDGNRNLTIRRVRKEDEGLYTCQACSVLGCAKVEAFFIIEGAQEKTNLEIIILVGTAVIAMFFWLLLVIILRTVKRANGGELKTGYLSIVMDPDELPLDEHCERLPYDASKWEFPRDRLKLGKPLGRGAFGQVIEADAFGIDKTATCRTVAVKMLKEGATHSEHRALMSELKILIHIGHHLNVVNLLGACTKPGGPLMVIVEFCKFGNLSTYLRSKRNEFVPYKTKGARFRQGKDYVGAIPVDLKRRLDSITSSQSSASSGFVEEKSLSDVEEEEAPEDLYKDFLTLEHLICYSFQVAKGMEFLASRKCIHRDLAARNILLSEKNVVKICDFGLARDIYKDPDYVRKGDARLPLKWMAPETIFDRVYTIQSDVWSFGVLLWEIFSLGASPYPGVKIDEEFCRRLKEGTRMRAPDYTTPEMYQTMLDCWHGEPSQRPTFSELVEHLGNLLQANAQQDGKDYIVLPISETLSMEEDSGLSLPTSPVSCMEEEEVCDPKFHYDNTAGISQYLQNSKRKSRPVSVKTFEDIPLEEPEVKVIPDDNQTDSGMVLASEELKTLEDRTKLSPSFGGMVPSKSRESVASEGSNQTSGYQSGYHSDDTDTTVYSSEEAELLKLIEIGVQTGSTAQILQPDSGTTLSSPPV

COc1ccc(F)c(N(Cc2ncc[nH]2)c2ccc3ncc(-c4cnn(C)c4)nc3n2)c1Cl [Compound 73]
BAF3-KDR (MIN IL3) pIC50 [1]: 5.55 | IC50 [2]: > 10 µM

CNCCN(c1ccc2ncc(-c3cnn(C)c3)nc2n1)c1c(F)c(O)cc(OC)c1F [Compound 122]
BAF3-KDR (MIN IL3) pIC50 [1]: <5 | IC50 [2]: > 10 µM

COc1cc(OC)c(F)c(N(CCO)c2ccc3ncc(-c4cnn(C)c4)nc3n2)c1 [Compound 40]
BAF3-KDR (MIN IL3) pIC50 [1]: 6.00 | IC50 [2]: > 10 µM

COc1cc(OC)c(F)c(N(Cc2ccn(C)n2)c2ccc3ncc(-c4cnn(C)c4)nc3n2)c1 [Compound 128]
BAF3-KDR (MIN IL3) pIC50 [1]: 6.34 | IC50 [2]: > 10 µM

COc1cc(OC)c(Cl)c(N(Cc2ncc[nH]2)c2ccc3ncc(-c4cnn(C)c4)nc3n2)c1Cl [Compound 98]
BAF3-KDR (MIN IL3) pIC50 [1]: 6.19 | IC50 [2]: > 10 µM

COc1cc(OC)cc(N(Cc2ncc[nH]2)c2ccc3ncc(-c4cnn(C)c4)nc3n2)c1 [Compound 24]
BAF3-KDR (MIN IL3) pIC50 [1]: 6.22 | IC50 [2]: > 10 µM

COc1cc(OC)c(F)c(N(Cc2cn[nH]c2)c2ccc3ncc(-c4cnn(C)c4)nc3n2)c1 [Compound 125]
BAF3-KDR (MIN IL3) pIC50 [1]: 6.21 | IC50 [2]: > 10 µM

COc1cc(OC)c(F)c(N(CCCN2CCCC2=O)c2ccc3ncc(-c4cnn(C)c4)nc3n2)c1 [Compound 120]
BAF3-KDR (MIN IL3) pIC50 [1]: 6.10 | IC50 [2]: > 10 µM

COc1cc(OC)c(F)c(N(CC2CCC(=O)N2)c2ccc3ncc(-c4cnn(C)c4)nc3n2)c1F (stereo not drawn) [Compound 192]
BAF3-KDR (MIN IL3) pIC50 [1]: 6.11 | IC50 [2]: > 10 µM

COc1cc(OC)c(F)c(N(Cc2ncc[nH]2)c2ccc3ncc(-c4cnn(C)c4)nc3n2)c1 [Compound 23]
BAF3-KDR (MIN IL3) pIC50 [1]: 6.74 | IC50 [2]: > 10 µM

COc1cc(OC)c(F)c(N(CCCN2CCCC2=O)c2ccc3ncc(-c4cnn(C)c4)nc3n2)c1F [Compound 56]
BAF3-KDR (MIN IL3) pIC50 [1]: 6.60 | IC50 [2]: > 10 µM

CNCCN(c1ccc2ncc(-c3cnn(C)c3)nc2n1)c1c(Cl)ccc(OC)c1Cl [Compound 83]
BAF3-KDR (MIN IL3) pIC50 [1]: <5 | IC50 [2]: > 10 µM

COc1cc(OC)c(F)c(/N=c2\ccc3ncc(-c4cnn(C)c4)nc3n2CCN)c1F [Compound 68]
BAF3-KDR (MIN IL3) pIC50 [1]: 6.07 | IC50 [2]: > 10 µM

COc1cc(OC)c(F)c(N(Cc2c[nH]c(C)n2)c2ccc3ncc(-c4cnn(C)c4)nc3n2)c1 [Compound 137]
BAF3-KDR (MIN IL3) pIC50 [1]: 6.19 | IC50 [2]: > 10 µM

COc1cc(OC)c(F)c(N(Cc2nc3c([nH]2)CCNC3)c2ccc3ncc(-c4cnn(C)c4)nc3n2)c1 [Compound 104]
BAF3-KDR (MIN IL3) pIC50 [1]: 5.10 | IC50 [2]: > 10 µM

COc1cc(/N=c2\ccc3ncc(-c4cnn(C)c4)nc3n2Cc2ccnn2C)c(F)c(OC)c1 [Compound 114]
BAF3-KDR (MIN IL3) pIC50 [1]: ~7.05 | IC50 [2]: > 10 µM

CNCCn1/c(=N/c2c(Cl)ccc(OC)c2Cl)ccc2ncc(-c3cnn(C)c3)nc21 [Compound 84]
BAF3-KDR (MIN IL3) pIC50 [1]: <5 | IC50 [2]: > 10 µM

COc1cc(/N=c2\ccc3ncc(-c4cnn(C)c4)nc3n2Cc2cc[nH]n2)c(F)c(OC)c1 [Compound 115]
BAF3-KDR (MIN IL3) pIC50 [1]: 6.58 | IC50 [2]: > 10 µM

COc1cc(OC)c(F)c(N(Cc2cc[nH]n2)c2ccc3ncc(-c4cnn(C)c4)nc3n2)c1 [Compound 118]
BAF3-KDR (MIN IL3) pIC50 [1]: 6.60 | IC50 [2]: > 10 µM

COc1cc(/N=c2\ccc3ncc(-c4cnn(C)c4)nc3n2CC2COC(=O)N2)c(F)c(OC)c1 (stereo not drawn) [Compound 123]
BAF3-KDR (MIN IL3) pIC50 [1]: 5.53 | IC50 [2]: > 10 µM

COc1cc(OC)cc(N(Cc2ncc[nH]2)c2ccc3ncc(-c4cnn(C)c4)nc3n2)c1 (racemic) [24-DL-tartrate salt]
BAF3-KDR (MIN IL3) pIC50 [1]: 6.30 | IC50 [2]: > 10 µM

COc1cc(OC)c(F)c(N(CC(O)COC(C)C)c2ccc3ncc(-c4cnn(C)c4)nc3n2)c1 (single isomer, unassigned) [Compound 75]
BAF3-KDR (MIN IL3) pIC50 [1]: 6.16 | IC50 [2]: > 10 µM

COc1cc(OC)c(F)c(N(CCN)c2ccc3ncc(-c4cnn(C)c4)nc3n2)c1F [Compound 67]
BAF3-KDR (MIN IL3) pIC50 [1]: 6.59 | IC50 [2]: > 10 µM

COc1cc(/N=c2\ccc3ncc(-c4cnn(C)c4)nc3n2CC2COC(=O)N2)c(F)c(OC)c1 (single isomer, unassigned) [Compound 112]
BAF3-KDR (MIN IL3) pIC50 [1]: 5.65 | IC50 [2]: > 10 µM

COc1cc(OC)c(F)c(N(CC(O)COC(C)C)c2ccc3ncc(-c4cnn(C)c4)nc3n2)c1F (stereo not drawn) [Compound 63]
BAF3-KDR (MIN IL3) pIC50 [1]: 6.58 | IC50 [2]: > 10 µM

CNCCN(c1ccc2ncc(-c3cnn(C)c3)nc2n1)c1c(F)ccc(OC)c1Cl [Compound 69]
BAF3-KDR (MIN IL3) pIC50 [1]: 5.13 | IC50 [2]: > 10 µM

COc1cc(OC)c(F)c(N(Cc2ncc[nH]2)c2ccc3ncc(-c4cnn(Cc5ncc[nH]5)c4)nc3n2)c1 [Compound 100]
BAF3-KDR (MIN IL3) pIC50 [1]: 5.41 | IC50 [2]: > 10 µM

COc1ccc(Cl)c(N(Cc2ncc[nH]2)c2ccc3ncc(-c4cnn(C)c4)nc3n2)c1Cl [Compound 65]
BAF3-KDR (MIN IL3) pIC50 [1]: 5.06 | IC50 [2]: > 10 µM

COc1cc(OC)c(F)c(N(Cc2nc[nH]n2)c2ccc3ncc(-c4cnn(C)c4)nc3n2)c1 [Compound 86]
BAF3-KDR (MIN IL3) pIC50 [1]: 6.24 | IC50 [2]: > 10 µM

COc1cc(OC)cc(N(CCCN2CCCC2=O)c2ccc3ncc(-c4cnn(C)c4)nc3n2)c1 [Compound 134]
BAF3-KDR (MIN IL3) pIC50 [1]: 5.20 | IC50 [2]: > 10 µM

COc1cc(OC)c(F)c(N(Cc2nc[nH]n2)c2ccc3ncc(-c4cnn(C)c4)nc3n2)c1F [Compound 85]
BAF3-KDR (MIN IL3) pIC50 [1]: 6.43 | IC50 [2]: > 10 µM

COc1cc(OC)c(F)c(N(CC2CCC(=O)N2)c2ccc3ncc(-c4cnn(C)c4)nc3n2)c1 (stereo not drawn) [Compound 46]
BAF3-KDR (MIN IL3) pIC50 [1]: 5.35 | IC50 [2]: > 10 µM

COc1cc(/N=c2\ccc3ncc(-c4cnn(C)c4)nc3n2CCCN2CCCC2=O)c(F)c(OC)c1 [Compound 119]
BAF3-KDR (MIN IL3) pIC50 [1]: ~6.52 | IC50 [2]: > 3.98 µM

COc1cc(OC)c(F)c(/N=c2\ccc3ncc(-c4cnn(C)c4)nc3n2CC(O)COC(C)C)c1F (stereo not drawn) [Compound 64]
BAF3-KDR (MIN IL3) pIC50 [1]: 6.31 | IC50 [2]: > 10 µM

COc1cc(OC)c(Cl)c(N(Cc2ncc[nH]2)c2ccc3ncc(-c4cnn(C)c4)nc3n2)c1 [Compound 42]
BAF3-KDR (MIN IL3) pIC50 [1]: 6.89 | IC50 [2]: > 10 µM

COc1cc(OC)c(F)c(N(Cc2ccnn2C)c2ccc3ncc(-c4cnn(C)c4)nc3n2)c1 [Compound 113]
BAF3-KDR (MIN IL3) pIC50 [1]: 5.33 | IC50 [2]: > 10 µM

CNCCN(c1ccc2ncc(-c3cnn(C)c3)nc2n1)c1c(Cl)c(OC)cc(OC)c1Cl [Compound 81]
BAF3-KDR (MIN IL3) pIC50 [1]: 5.36 | IC50 [2]: > 10 µM

COc1cc(OC)c(F)c(N(Cc2nncn2C)c2ccc3ncc(-c4cnn(C)c4)nc3n2)c1 [Compound 132]
BAF3-KDR (MIN IL3) pIC50 [1]: 5.38 | IC50 [2]: > 10 µM

COc1cc(OC)c(Cl)c(N(CC2CCC(=O)N2)c2ccc3ncc(-c4cnn(C)c4)nc3n2)c1Cl (single isomer, unassigned) [Compound 88]
BAF3-KDR (MIN IL3) pIC50 [1]: 5.14 | IC50 [2]: > 10 µM

COc1cc(OC)c(F)c(N(Cc2nc(C)c[nH]2)c2ccc3ncc(-c4cnn(C)c4)nc3n2)c1 [Compound 135]
BAF3-KDR (MIN IL3) pIC50 [1]: 6.64 | IC50 [2]: > 10 µM

CNCCN(c1ccc2ncc(-c3cn[nH]c3)nc2n1)c1c(F)c(OC)cc(OC)c1F [Compound 106]
BAF3-KDR (MIN IL3) pIC50 [1]: 5.59 | IC50 [2]: > 10 µM

COc1cc(OC)c(F)c(N(Cc2c[nH]cn2)c2ccc3ncc(-c4cnn(C)c4)nc3n2)c1 [Compound 41]
BAF3-KDR (MIN IL3) pIC50 [1]: 6.70 | IC50 [2]: > 10 µM
